Measured values reported in publication PMC12320245 (International Journal of Biological Sciences, 2025).
“Also recorded” adds a separate entry of the source.

What was measured:
[1] = system: hippocampus of TBI rats; test: Controlled cortical impact TBI: hippocampal immunofluorescence; format: in vivo, rat
Method: (§1) This study used male Sprague-Dawley rats weighing 300-350 g and aged 8 weeks, obtained from DBL Co. (Chungcheongbuk-do, Republic of Korea). The rats were housed in a controlled environment with a temperature of 20 ± 2 °C, a relative humidity of 55 ± 5%, and a 12-hour light/dark cycle. They were provided ad libitum access to food and water. To minimize stress associated with transportation, animals underwent a one-week acclimatization period before the start of the experiments. All experimental procedures were conducted in compliance with the guidelines of the National Institutes of Health for the care and use of laboratory animals and were approved by the Hallym University Institutional Animal Care and Use Committee (protocol # Hallym 2022-23, approved on July 15, 2022). This manuscript follows the principles outlined in the Animal research: reporting in vivo experiments (ARRIVE) guidelines.
A controlled cortical impact (CCI) model was used to induce TBI in rats. Animals were anesthetized with 1-1.5% isoflurane in a 30:70 oxygen-to-nitrous oxide mixture and securely positioned in a stereotaxic frame. A 3 mm craniotomy was performed using a portable drill at a site 2.8 mm lateral to the midline and 3.0 mm posterior to Bregma. TBI was induced using an Impact One™ Stereotaxic Impactor (Leica Biosystems) equipped with a 3 mm flat-tip, set to deliver an impact at a velocity of 5 m/s and a depth of 3 mm. Throughout the procedure, body temperature was maintained at 36-37.5°C using a homeothermic blanket system to prevent hypothermia. […] At designated time points (3 hours, 24 hours, or 2 weeks post-injury), animals were euthanized via transcardial perfusion with saline, followed by 4% paraformaldehyde (PFA). Brains were post-fixed in 4% PFA for 1 hour, cryoprotected in 30% sucrose, and sectioned at a 30 μm thickness using a cryostat microtome (CM1850; Leica, Wetzlar, Germany). Brain sections were stored in cryoprotectant solution at 4°C until further analysis.
Brain tissues were initially treated with 1.2% hydrogen peroxide at room temperature for 15 minutes to block endogenous peroxidase activity. Following this step, the tissues were washed three times in PBS for 10 minutes each. The tissues and fixed primary neurons were incubated overnight at 4°C with primary antibodies diluted in antibody diluent. […]. After incubation with primary antibodies, tissues were washed in PBS and incubated for 2 hours at room temperature on a shaker with fluorescent-conjugated secondary antibodies (1:250, Invitrogen). All samples were counterstained with DAPI (1:1000, Invitrogen) to visualize cell nuclei. The stained tissues were mounted on gelatin-coated slides, air-dried, and coverslipped using DPX mounting medium. To evaluate the fluorescent signals of labeled proteins, observations were performed using a Zeiss LSM 710 confocal microscope (Carl Zeiss) with sequential scanning mode for DAPI and Alexa 488 and 594. Stacks of images (1024 × 1024 pixels) from consecutive slices of 0.5-0.8 μm in thickness were obtained by averaging fifteen scans per slice, processed using ZEN 2 (blue edition, Carl Zeiss).

[2] = system: ipsilateral hippocampus of TBI rats; test: Controlled cortical impact TBI: IgG extravasation (BBB integrity); format: in vivo, rat; conditions: 24 hours and 2 weeks post-TBI
Method: as §1
A controlled cortical impact (CCI) model was used to induce TBI in rats. Animals were anesthetized with 1-1.5% isoflurane in a 30:70 oxygen-to-nitrous oxide mixture and securely positioned in a stereotaxic frame. A 3 mm craniotomy was performed using a portable drill at a site 2.8 mm lateral to the midline and 3.0 mm posterior to Bregma. […]

[3] = system: IκB kinase ε (IKK-ε); parameters: method as in PMID 23396208; conditions: cited from earlier work
[4] = system: TBI rats; test: Controlled cortical impact TBI: modified neurological severity score; format: in vivo, rat
Method: as §1
A controlled cortical impact (CCI) model was used to induce TBI in rats. Animals were anesthetized with 1-1.5% isoflurane in a 30:70 oxygen-to-nitrous oxide mixture and securely positioned in a stereotaxic frame. […]
The mNSS provides a quantitative measure of neurological function, with scores ranging from 0 (normal function) to 18 (severe dysfunction). The test evaluates multiple parameters to comprehensively assess neurological deficits: 1) Tail Suspension (3 points)—The rat's ability to be lifted by its tail is assessed, with higher scores indicating increased difficulty or inability to lift. 2) Balance and Posture (3 points)—The rat's ability to maintain proper posture and balance when placed on a flat surface is observed and scored. 3) Sensory Function ([…])—Sensory responses, including reactions to tactile or pain stimuli, are evaluated. 4) Beam Balance Test (6 points)—The rat's ability to walk on a narrow beam is assessed. […] 5) Reflexes and Abnormal Movements (4 points)—The presence or absence of reflexes, as well as abnormal behaviors or movements, are recorded and scored.

[5] = system: primary hippocampal neurons; test: Scratch injury: cAMP ELISA; format: cell-based, rat; conditions: 10 μM AMX immediately after scratch, 6 hours post-injury
Method: Primary hippocampal neurons were obtained from embryonic day 18 (E18) Sprague-Dawley rat embryos. Pregnant rats were anesthetized using 2-3% isoflurane in a gas mixture of 70% nitrous oxide and 30% oxygen. Following euthanasia, the hippocampi were carefully dissected, minced, and enzymatically dissociated using TrypLE Express (Gibco, NY, USA) for 10 minutes at 37°C. The tissue was further mechanically dissociated using fire-polished glass pipettes, and the resulting cell suspension was filtered through a 70 μm cell strainer to remove debris. Neurons were seeded at a density of 3 × 10^5 cells per well in 24-well plates pre-coated with poly-L-lysine (Sigma-Aldrich, Saint Louis, MO, USA). Cells were maintained in neurobasal medium supplemented with B-27 (Thermo Fisher Scientific, Waltham, MA, USA), GlutaMAX (Gibco), and penicillin-streptomycin. The cultures were incubated at 37.5°C in a humidified atmosphere containing 5% CO₂. After seven days of growth, neurons were fixed with 4% paraformaldehyde (PFA) for 15 minutes at room temperature and subsequently stored at 4°C until their further use for immunostaining. A scratch injury model was used to mimic TBI in vitro. […] After the treatment period, neuronal damage and recovery were assessed using appropriate evaluation methods. […]

[6] = hippocampal regions, 24 hours after TBI
[7] = hippocampus, 24 hours after TBI

Question: Which “hippocampal PDE4 expression (immunofluorescence)” value ([1]; 3 hours post-TBI) does the source give for `CC(C)c1ccc2oc3nc(N)c(C(=O)O)cc3c(=O)c2c1` [AMX, amlexanox] here?
Answer: markedly reduced PDE4 expression

Question: And the “4HNE staining (lipid peroxidation)” value [1, 6]?
Answer: significantly reduced 4HNE staining

Question: And the “CD86 staining (M1 polarization)” value [1, 6]?
Answer: decreased Iba-1 and CD86 staining

Question: What about the “Iba-1 staining (microglial activation)” value [1, 6] of the same compound?
Answer: decreased Iba-1 and CD86 staining

Question: What about the “p-p38 levels (immunofluorescence)” value ([1]; hippocampal regions, 24 hours post-TBI, vs TBI-vehicle) of the same compound?
Answer: significantly reduced p-p38 levels

Question: And the C3 intensity [1, 7]?
Answer: lower GFAP and C3 intensity

Question: What about the “GFAP intensity (astrocytic activation)” value [1, 7] of the same compound?
Answer: lower GFAP and C3 intensity

Question: What about the “IgG extravasation (BBB integrity)” value [2] of the same compound?
Answer: reduces this leakage; also recorded: significantly reduced IgG extravasation

Question: And the “inhibition of IKK-ε” value [3]?
Answer: dual inhibitor

Question: What about the “beam balance test of mNSS (balance control, videos)” value ([4]; TBI-AMX vs TBI-vehicle) of the same compound?
Answer: performed better

Question: And the ΔmNSS ([4]; between day 1 and subsequent time points, vs vehicle)?
Answer: greater improvements in ΔmNSS

Question: And the mNSS scores ([4]; days 1 to 7 after TBI, daily AMX 100 mg/kg i.p., vs vehicle)?
Answer: lower mNSS scores

Question: What about the “cAMP levels after scratch injury (ELISA)” value [5] of the same compound?
Answer: restored cAMP and p-PKA levels
